Measured values: US20180273531A1, “PYRIMIDINE COMPOUND AND MEDICAL USE THEREOF” (Japan Tobacco Inc., priority 2004, published 2018)

Experiments:
Type in all cases: cell-based
[1] = test system: colorectal cancer cell line HT-29 cells; assay: Growth inhibitory effect against cancer cell lines (3H-thymidine uptake), HT-29; conditions: Homo sapiens, HT-29, inhibition of 3H-thymidine uptake; test substance 18 hrs, then 3H-thymidine 6 hrs; triplicate
Outline: (§1)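 Cells seeded at 1.0×10^4/well, grown 24 hrs, then exposed to compound in DMSO for 18 hrs before 6 hrs pulse with ^3H-thymidine (0.25 μCi/well). Harvested cell-incorporated radioactivity counted; IC50 is the concentration halving uptake versus DMSO control, triplicate.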

p27 protein = p27 protein induction test (Western blotting); conditions: test substance (0.1 1M), 24 hrs, ACHN cells or HT-29 cells, compared to DMSO, n=2
Outline: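 ACHN or HT-29 cells grown 24 h, then treated with test substance at […] (DMSO) for 24 h. Lysates normalised by protein content and probed by Western blot with anti-p27 antibody. Band density quantified by densitometer against DMSO control, n=2 averaged.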

[2] = test system: Renal cancer cell line ACHN cell; assay: Growth inhibitory effect against cancer cell lines (3H-thymidine uptake), ACHN; conditions: Homo sapiens, ACHN
Outline: as §1

p15 protein = assay: Evaluation of p15 induction activity (Western blotting); conditions: test substance 0.1 μM, 24 hrs, ACHN cells or HT-29 cells, compared to DMSO, n=2
Outline: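 p15 protein quantified by densitometry of anti-p15 Western blots (10 μg protein per lane, mean of n=2). Samples came from HT-29 or ACHN cells given 0.1 μM compound for 24 h after 24 h plating, with DMSO as control.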

Row | SMILES | IC50 [1] | IC50 [2] | fold induction at 0.1 µM (p27 protein) | fold induction at 0.1 µM (p15 protein)
1 | CC(=O)Nc1ccc(-n2c(=O)n(C3CC3)c(=O)c3c(Nc4ccc(I)cc4F)n(C)c(=O)c(C)c32)cc1 [Example 4-66] | 10 to 100 nM | 100 to 1000 nM | ≥ 1.5 | ≥ 1.5
2 | C#Cc1ccc(Nc2c3c(=O)n(C4CC4)c(=O)n(-c4ccc(NC(C)=O)cc4)c3c(C)c(=O)n2C)c(F)c1 [Example 4-71] | 10 to 100 nM | 100 to 1000 nM | ≥ 1.5 | ≥ 1.5
3 | Cc1c(=O)n(C)c(Nc2ccc(I)cc2F)c2c(=O)n(C3CC3)c(=O)n(-c3ccccc3)c12 [Example 4-72] | < 10 nM | 10 to 100 nM | ≥ 1.5 | ≥ 1.5
4 | CCS(=O)(=O)Nc1ccc(-n2c(=O)n(C3CC3)c(=O)c3c(Nc4ccc(I)cc4F)n(C)c(=O)c(C)c32)cc1 [Example 4-77] | < 10 nM | 10 to 100 nM | ≥ 1.5 | ≥ 1.5
5 | CCc1ccc(Nc2c3c(=O)n(C4CC4)c(=O)n(-c4ccc(NS(C)(=O)=O)cc4)c3c(C)c(=O)n2C)c(F)c1 [Example 4-78] | 10 to 100 nM | 100 to 1000 nM | ≥ 1.5 | ≥ 1.5
6 | CON(C)C(=O)Nc1cccc(-n2c(=O)n(C3CC3)c(=O)c3c(Nc4ccc(I)cc4F)n(C)c(=O)c(C)c32)c1 [Example 4-80] | < 10 nM | 10 to 100 nM | ≥ 1.5 | ≥ 1.5
7 | Cc1c(=O)n(C)c(Nc2ccc(I)cc2F)c2c(=O)n(C3CC3)c(=O)n(-c3ccc(C(=O)N(C)C)cc3)c12 [Example 4-93] | < 10 nM | 10 to 100 nM | ≥ 1.5 | ≥ 1.5
8 | CC(=O)Nc1cccc(-n2c(=O)n(C3CC3)c(=O)c3c(Nc4ccc(C(C)C)cc4F)n(C)c(=O)c(C)c32)c1 [Example 4-98] | < 10 nM | 10 to 100 nM | ≥ 1.5 | ≥ 1.5
9 | Cc1c(=O)n(C)c(Nc2ccc(I)cc2F)c2c(=O)n(C3CC3)c(=O)n(-c3ccc(F)c(NS(C)(=O)=O)c3)c12 [Example 4-101] | < 10 nM | 10 to 100 nM | ≥ 1.5 | ≥ 1.5
10 | CSc1ccc(Nc2c3c(=O)n(C4CC4)c(=O)n(-c4cccc(NS(C)(=O)=O)c4)c3c(C)c(=O)n2C)c(F)c1 [Example 4-106] | < 10 nM | 10 to 100 nM | ≥ 1.5 | ≥ 1.5
11 | Cc1c(=O)n(C)c(Nc2ccc(I)cc2F)c2c(=O)n(C3CC3)c(=O)n(-c3cccc(N4C(=O)CNC4=O)c3)c12 [Example 4-108] | < 10 nM | 10 to 100 nM | ≥ 1.5 | ≥ 1.5
12 | Cc1c(=O)n(C)c(Nc2ccc(I)cc2F)c2c(=O)n(C3CC3)c(=O)n(-c3cccc(NC=O)c3)c12 [Example 4-113] | < 10 nM | < 10 nM | ≥ 1.5 | ≥ 1.5
13 | Cc1c(=O)n(C)c(Nc2ccc(I)cc2F)c2c(=O)n(C3CC3)c(=O)n(-c3cccc(N4CCNS4(=O)=O)c3)c12 [Example 4-114] | < 10 nM | 10 to 100 nM | ≥ 1.5 | ≥ 1.5
14 | Cc1c(=O)n(C)c(Nc2ccc(I)cc2F)c2c(=O)n(C3CC3)c(=O)n(-c3ccc4c(c3)NC(=O)CO4)c12 [Example 4-118] | < 10 nM | 10 to 100 nM | ≥ 1.5 | ≥ 1.5
15 | Cc1c(=O)n(C)c(Nc2ccc(I)cc2F)c2c(=O)n(C)c(=O)n(-c3ccc(S(N)(=O)=O)cc3)c12 [Example 4-119] | < 10 nM | 10 to 100 nM | ≥ 1.5 | ≥ 1.5

The next lines start with results.

Row | IC50 [1] | IC50 [2] | SMILES | fold induction at 0.1 µM (p27 protein) | fold induction at 0.1 µM (p15 protein)
16 | < 10 nM | 10 to 100 nM | CC(=O)Nc1cccc(-n2c(=O)n(C3CC3)c(=O)c3c(Nc4ccc(C5CC5)cc4F)n(C)c(=O)c(C)c32)c1 [Example 4-67] | ≥ 1.5 | ≥ 1.5
17 | < 10 nM | 10 to 100 nM | Cc1c(=O)n(C)c(Nc2ccc(I)cc2F)c2c(=O)n(C3CC3)c(=O)n(-c3cccc(NC(=O)c4c[nH]cn4)c3)c12 [Example 4-73] | ≥ 1.5 | ≥ 1.5
18 | < 10 nM | 10 to 100 nM | CONC(=O)Nc1cccc(-n2c(=O)n(C3CC3)c(=O)c3c(Nc4ccc(I)cc4F)n(C)c(=O)c(C)c32)c1 [Example 4-74] | ≥ 1.5 | ≥ 1.5
19 | < 10 nM | 10 to 100 nM | C#Cc1ccc(Nc2c3c(=O)n(C4CC4)c(=O)n(-c4ccc(NS(C)(=O)=O)cc4)c3c(C)c(=O)n2C)c(F)c1 [Example 4-76] | ≥ 1.5 | ≥ 1.5
20 | < 10 nM | 10 to 100 nM | Cc1c(=O)n(C)c(Nc2ccc(I)cc2F)c2c(=O)n(C3CC3)c(=O)n(-c3cccc(NC(N)=O)c3)c12 [Example 4-81] | ≥ 1.5 | ≥ 1.5
21 | < 10 nM | < 10 nM | Cc1c(=O)n(C)c(Nc2ccc(I)cc2F)c2c(=O)n(C3CC3)c(=O)n(-c3ccc4c(c3)NC(=O)C4)c12 [Example 4-88] | ≥ 1.5 | ≥ 1.5
22 | 10 to 100 nM | 100 to 1000 nM | Cc1c(=O)n(C)c(Nc2ccc(I)cc2F)c2c(=O)n(C3CC3)c(=O)n(-c3cccc(NC(=O)c4cn[nH]c4)c3)c12 [Example 4-89] | ≥ 1.5 | ≥ 1.5
23 | 10 to 100 nM | 100 to 1000 nM | Cc1c(=O)n(C)c(Nc2ccc(I)cc2F)c2c(=O)n(C3CC3)c(=O)n(-c3ccc(C(=O)O)cc3)c12 [Example 4-90] | ≥ 1.5 | ≥ 1.5
24 | < 10 nM | 10 to 100 nM | Cc1c(=O)n(C)c(Nc2ccc(I)cc2F)c2c(=O)n(C3CC3)c(=O)n(-c3ccc(C(N)=O)cc3)c12 [Example 4-91] | ≥ 1.5 | ≥ 1.5
25 | < 10 nM | 10 to 100 nM | CNC(=O)c1ccc(-n2c(=O)n(C3CC3)c(=O)c3c(Nc4ccc(I)cc4F)n(C)c(=O)c(C)c32)cc1 [Example 4-92] | ≥ 1.5 | ≥ 1.5
26 | < 10 nM | 10 to 100 nM | C=C(C)c1ccc(Nc2c3c(=O)n(C4CC4)c(=O)n(-c4cccc(NC(C)=O)c4)c3c(C)c(=O)n2C)c(F)c1 [Example 4-97] | ≥ 1.5 | ≥ 1.5
27 | 10 to 100 nM | 100 to 1000 nM | C#Cc1ccc(Nc2c3c(=O)n(C4CC4)c(=O)n(-c4ccc(F)c(NC(C)=O)c4)c3c(C)c(=O)n2C)c(F)c1 [Example 4-102] | ≥ 1.5 | ≥ 1.5
28 | < 10 nM | 100 to 1000 nM | Cc1c(=O)n(C)c(Nc2ccc(I)cc2F)c2c(=O)n(C3CC3)c(=O)n(-c3ccc4nc(O)[nH]c4c3)c12 [Example 4-103] | ≥ 1.5 | ≥ 1.5
29 | < 10 nM | 10 to 100 nM | CSc1ccc(Nc2c3c(=O)n(C4CC4)c(=O)n(-c4cccc(NC(C)=O)c4)c3c(C)c(=O)n2C)c(F)c1 [Example 4-105] | ≥ 1.5 | ≥ 1.5
30 | < 10 nM | 10 to 100 nM | Cc1c(=O)n(C)c(Nc2ccc(I)cc2F)c2c(=O)n(C3CC3)c(=O)n(-c3ccc4nc[nH]c4c3)c12 [Example 4-107] | ≥ 1.5 | ≥ 1.5
31 | < 10 nM | 10 to 100 nM | Cc1c(=O)n(C)c(Nc2ccc(I)cc2F)c2c(=O)n(C3CC3)c(=O)n(-c3cccc(N4CC(=O)NC4=O)c3)c12 [Example 4-109] | ≥ 1.5 | ≥ 1.5
32 | < 10 nM | 10 to 100 nM | Cc1c(=O)n(C)c(Nc2ccc(I)cc2F)c2c(=O)n(C3CC3)c(=O)n(-c3cccc(NC4=NCCO4)c3)c12 [Example 4-110] | ≥ 1.5 | ≥ 1.5
33 | < 10 nM | 10 to 100 nM | Cc1c(=O)n(C)c(Nc2ccc(I)cc2F)c2c(=O)n(C3CC3)c(=O)n(-c3ccc4cn[nH]c4c3)c12 [Example 4-115] | ≥ 1.5 | ≥ 1.5
34 | < 10 nM | 100 to 1000 nM | Cc1c(=O)n(C)c(Nc2ccc(I)cc2F)c2c(=O)n(C3CC3)c(=O)n(-c3ccc(NS(C)(=O)=O)c(Cl)c3)c12 [Example 4-116] | ≥ 1.5 | ≥ 1.5
35 | < 10 nM | 100 to 1000 nM | Cc1cc(-n2c(=O)n(C3CC3)c(=O)c3c(Nc4ccc(I)cc4F)n(C)c(=O)c(C)c32)ccc1NS(C)(=O)=O [Example 4-117] | ≥ 1.5 | ≥ 1.5
36 | < 10 nM | 10 to 100 nM | CSc1ccc(Nc2c3c(=O)n(C4CC4)c(=O)n(-c4cccc(NS(N)(=O)=O)c4)c3c(C)c(=O)n2C)c(F)c1 [Example 4-120] | ≥ 1.5 | ≥ 1.5
37 | < 10 nM | 10 to 100 nM | Cc1c(=O)n(C)c(Nc2ccc(I)cc2F)c2c(=O)n(C3CC3)c(=O)n(-c3ccc4[nH]nnc4c3)c12 [Example 4-121] | ≥ 1.5 | ≥ 1.5
